Assay results published in patent US20090233931A1, “THERAPEUTIC COMPOUNDS” (priority 2008, published 2009).

Test system: lashes and adjacent hairs of glaucoma patients
Assay: Eyelash/hair growth observed in glaucoma patients treated in one eye
Type: in vivo, humans
Settings: glaucoma patient treated in one eye only
Excerpt: In the course of treating patients having glaucoma, treatment may only be appropriate in one eye. […] The lash appearance on the lids of the treated eyes would have appeared quite attractive if it represented a bilateral phenomenon. As a result of its asymmetric nature, the long lashes on one side could be construed as disturbing from a cosmetic standpoint. A systemic examination was preformed as a result of the asymmetric phenomenon. It soon became apparent that this altered appearance was not an isolated finding. […] Definite differences could be identified to varying degrees in the lashes and adjacent hairs of all patients who were taking the drug on a unilateral basis for longer than 6 months.
The changes in the lashes were apparent on gross inspection in several patients once attention was focused on the issue. In those with light colored hair and lashes, the differences were only seen easily with the aid of the high magnification and lighting capabilities of the slit lamp biomicroscope. In the course of glaucoma follow-up examination, attention is generally immediately focused on the eye itself. As a result of the high power magnification needed only one eye is seen at a time and the eye is seen at a high enough power that the lashes are not in focus. […]

SMILES: CCNC(=O)CCC/C=C\C[C@@H]1[C@@H](/C=C/[C@@H](O)CCc2ccccc2)[C@H](O)C[C@@H]1O [bimatoprost]
- lash appearance in treated eye versus non-treated eye: longer, thicker, and fuller
